Earlier results on one compound are cited in US9862652B2, “Microencapsulated nitrification inhibitor composition” (DOW AGROSCIENCES LLC, priority 2014, dated 2018).

Consider `Clc1cccc(C(Cl)(Cl)Cl)n1` [nitrapyrin, 2-chloro-6-(trichloromethyl)pyridine], for which, where the note is “ambient temperature”, the “nitrapyrin dissolved by Hallcomid M-8-10” value is reported as “about 50 weight percent”. Also, for the setting “ambient temperature (24° C.)”, the “nitrapyrin dissolved by Aromatic 100” value is “about 51 weight percent” and the “nitrapyrin dissolved by cyclohexanone” value was “about 60 wt %”. Further, where the note is “−10° C.”, the “nitrapyrin dissolved by Aromatic 150” value was “about 29 weight percent”.
